The source of these data is paper PMC10687071 (The Journal of Biological Chemistry, 2023).

Changes are numbered by the printed parent chain. “And” between values parts separate entries of the source, which are not always exact repeats. Equal entries are not always repeated.

For data set [1] the following is noted: can reach up; cited from earlier work.
Data set [2] addresses T1, F130G mutant EAG1 channels (Mus musculus, UniProt Q60603, F130G).
T1 construct: expressed in transfected cells; host or cells: Xenopus laevis oocytes injected with cRNA
T1 sequence (Q60603 1-989 F130G): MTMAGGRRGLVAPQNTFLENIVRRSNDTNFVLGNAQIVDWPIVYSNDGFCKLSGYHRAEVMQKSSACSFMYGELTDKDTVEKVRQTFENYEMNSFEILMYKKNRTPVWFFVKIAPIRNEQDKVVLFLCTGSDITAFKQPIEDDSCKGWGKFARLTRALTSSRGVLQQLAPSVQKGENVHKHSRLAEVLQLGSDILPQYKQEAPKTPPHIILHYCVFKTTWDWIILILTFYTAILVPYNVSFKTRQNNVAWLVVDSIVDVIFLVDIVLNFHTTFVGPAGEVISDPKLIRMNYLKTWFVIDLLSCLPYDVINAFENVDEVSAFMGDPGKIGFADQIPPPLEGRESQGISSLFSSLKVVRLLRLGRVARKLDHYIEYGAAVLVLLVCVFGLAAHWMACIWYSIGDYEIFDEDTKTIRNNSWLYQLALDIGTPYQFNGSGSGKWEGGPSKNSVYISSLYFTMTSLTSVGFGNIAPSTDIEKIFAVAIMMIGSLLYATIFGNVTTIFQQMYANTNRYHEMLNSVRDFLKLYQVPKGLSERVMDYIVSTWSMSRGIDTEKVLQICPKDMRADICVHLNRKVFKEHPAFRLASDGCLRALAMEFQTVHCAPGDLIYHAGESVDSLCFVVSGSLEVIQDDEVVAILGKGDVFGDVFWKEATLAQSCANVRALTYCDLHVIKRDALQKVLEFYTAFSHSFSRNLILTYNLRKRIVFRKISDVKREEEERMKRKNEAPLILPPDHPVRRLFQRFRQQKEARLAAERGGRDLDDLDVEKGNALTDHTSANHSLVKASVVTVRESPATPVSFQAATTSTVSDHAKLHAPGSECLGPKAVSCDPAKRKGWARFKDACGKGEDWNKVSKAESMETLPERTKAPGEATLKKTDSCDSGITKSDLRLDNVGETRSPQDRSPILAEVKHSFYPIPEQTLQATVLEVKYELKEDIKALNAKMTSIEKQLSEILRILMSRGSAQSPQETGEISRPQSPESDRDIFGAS
Put plainly: TEVC recording, imipramine inhibition, F130G mutant. The format is cell-based. The note with it: F130G mutant EAG1 channel, +50 mV. From the text:
(§1) The cDNA encoding wild-type (WT) mouse EAG1 channels in pGH19 vector was kindly provided by G. Robertson (University of Wisconsin-Madison, Madison, WI). The mutant ΔPAS EAG1 channel in pGH19 with the deletion of the PAS domain residues 2 to 130 was generated by Bio Basic Inc and verified by DNA sequencing (Genewiz). Mutant EAG1 channels with single amino acid substitutions were generated by Genewiz and verified by DNA sequencing. cRNA was transcribed using the T7 mMessage mMachine kit (Thermo Fisher Scientific). Defolliculated Xenopus laevis oocytes were purchased from Ecocyte Bioscience or Xenopus1 and injected with the cRNA using a Nanoinject II oocyte injector (Drummond).
(§2) For EAG1 current recordings, oocytes were placed into a handmade chamber containing a bath solution for the current recording. The currents were recorded using a TEVC technique with OC-725C amplifier (Warner Instruments) and pClamp11 software (Molecular Devices). The signals were digitized using Digidata 1550 (Molecular Devices). Patch pipettes were pulled from borosilicate glass and had resistances of 0.7 to 1.5 MΩ. The recording (bath) solution contained 96 mM NaCl, 4 mM KCl, 0.1 mM CaCl2, 1.8 mM MgCl2, and 5 mM HEPES, pH 7.5. The pipette solution contained 3 M KCl. […]

Data set [3] deals with T2, Y71E mutant EAG1 channels (Mus musculus, UniProt Q60603, Y71E).
T2 construct: expressed in transfected cells; host or cells: Xenopus laevis oocytes injected with cRNA
T2 sequence (Q60603 1-989 Y71E): T1 sequence (Q60603 1-989 F130G) with Y71E, G130F
As to the kind of experiment: TEVC recording, imipramine inhibition, Y71E mutant. The format is cell-based. The note with it: Y71E mutant EAG1 channel, +50 mV.
Source text: as §1, §2

For the molecule `CN(C)CCCN1c2ccccc2CCc2ccccc21` [imipramine], the “Plasma levels of imipramine observed in patients” value in data set [1] is ≤ 300 ng/ml and ≤ 1 μM. Moreover, the IC50 came out at 52.8 ± 5 µM in data set [2] and 28.5 ± 1.4 µM in data set [3].

As a reminder, the IC50 is the concentration needed to halve the response being measured. A higher IC50 goes with a need for much substance.
